Measurements from US6284768A, “Src family SH2 domain inhibitors” (Boehringer Ingelheim Pharmaceuticals, Inc., priority 1999, dated 2001).
Like-named read-outs stand apart in the source and are kept apart here.

Experiments:
[1] = target: T1, p56lck GST-SH2 (lck SH2 domain) (Homo sapiens, UniProt P06239); assay: Receptor-ligand equilibrium binding constants by surface plasmon resonance (biosensor), lck SH2 domain; details: Table 1, compounds of formula (II)
T1 construct: GST (N)

[2] = test system: Inter-leukin 2 (IL-2) production by activated Human Primary T Lymphocytes; assay: Primary T cell assay: inhibition of IL-2 production by activated human primary CD4 positive T lymphocytes; format: cell-based; details: Table 5, mean IC50 value, CD4 positive T cells activated with anti-CD3/anti-CD28, IL-2 by ELISA, read-out: IC50 (blocking IL-2 production)
Experimental: Summary of Primary T Cell Assay.
Inhibitors of the lck SH2 domain were assayed for their ability to block Inter-leukin 2 (IL-2) production by activated Human Primary T Lymphocytes. Peripheral blood mononuclear cells were isolated from whole blood by centrifugation in ficoll-Pague partitioning medium. CD4 positive cells were purified using negative selection. […] The compounds, at the appropriate dilutions, were added, and the cells were incubated for 60 minutes at 37° C. The CD4 positive T cells were then activated by the addition of anti-CD3 (60 ng/mL), anti CD28 (500 ng/mL) and goat anti mouse IgG coated beads, and incubated overnight at 37° C. The cells were pelleted, and the supernatents assayed for IL-2 by ELISA.
As SH2 domain containing proteins are intracellular, any therapeutic agent must be able to cross biological membranes. […] These characteristics may be quantified by observing inhibition in IL-2 production in human blood CD4 positive T-lymphocytes after T cell receptor and CD28 cross-linking.

T1 sequence (P06239 127-224 limits assumed): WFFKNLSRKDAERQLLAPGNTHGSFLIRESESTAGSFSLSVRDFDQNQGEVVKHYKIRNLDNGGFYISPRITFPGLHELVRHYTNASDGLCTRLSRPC

| Kd [1] [µM] | IC50 ([2]; Homo sapiens, CD4 positive) [µM] | IC50 [2] [µM] | SMILES |
| --- | --- | --- | --- |
| 1.6 | 207 |  | Cc1ccn(Cc2ccc(C(F)(F)F)cn2)c(=O)c1NC(=O)[C@H](Cc1ccc(C(C)(C)C(=O)O)cc1)NC(=O)Cc1ccc2ccccc2c1 [Compound 128] |
| 2.8 | 107 |  | Cc1ccn(Cc2ncc(C(F)(F)F)cc2Cl)c(=O)c1NC(=O)[C@H](Cc1ccc(C(C)(C)C(=O)O)cc1)NC(=O)Cc1ccc2ccccc2c1 [Compound 129] |
| 0.84 | 181 |  | COc1ccc(Cn2ccc(C)c(NC(=O)[C@H](Cc3ccc(C(C)(C)C(=O)O)cc3)NC(=O)Cc3ccc(NCc4ccccc4)cc3)c2=O)cc1 [Compound 130] |
| 1.3 | 35 |  | CCOc1ccc(Cn2ccc(C)c(NC(=O)C(Cc3ccc(C(C)(C)C(=O)O)cc3)NC(=O)Cc3ccc4ccccc4c3)c2=O)cc1 (centres unmarked) [Compound 135] |
| 0.51 | 75 |  | CCCCCCn1ccc(C)c(NC(=O)C(Cc2ccc(C(C)(C)C(=O)O)cc2)NC(=O)Cc2ccc3ccccc3c2)c1=O (centres unmarked) [Compound 137] |
| 0.83 | 64 |  | CCCCCCCn1ccc(C)c(NC(=O)C(Cc2ccc(C(C)(C)C(=O)O)cc2)NC(=O)Cc2ccc3ccccc3c2)c1=O (centres unmarked) [Compound 138] |
| 2.9 | 56 |  | CCOc1ccc(Cn2ccc(C)c(NC(=O)C(Cc3ccc(C(C)(C)C(=O)O)cc3)NC(=O)C(C)(C)c3ccc4ccccc4c3)c2=O)cc1 (centres unmarked) [Compound 139] |
| 0.63 | 82 |  | CCOc1ccc(Cn2ccc(C)c(NC(=O)C(Cc3ccc(C(C)(C)C(=O)O)cc3)NC(=O)Cc3cccc4ccccc34)c2=O)cc1 (centres unmarked) [Compound 140] |
| 0.84 | 56 |  | Cc1ccn(CCCCC(C)C)c(=O)c1NC(=O)C(Cc1ccc(C(C)(C)C(=O)O)cc1)NC(=O)Cc1ccc2ccccc2c1 (centres unmarked) [Compound 145] |
| 4.6 | 60 |  | CCc1ccc(Cn2ccc(C)c(NC(=O)C(Cc3ccc(C(C)(C)C(=O)O)cc3)NC(=O)Cc3ccc4ccccc4c3)c2=O)cc1 (centres unmarked) [Compound 150] |
| 1.2 | 45 |  | Cc1ccn(Cc2ccc3c(c2)OCO3)c(=O)c1NC(=O)C(Cc1ccc(C(C)(C)C(=O)O)cc1)NC(=O)C(C)(C)c1ccc2ccccc2c1 (centres unmarked) [Compound 154] |
| 0.37 | 76 |  | Cc1ccn(Cc2ccc3c(c2)OCO3)c(=O)c1NC(=O)C(Cc1ccc(C(C)(C)C(=O)O)cc1)NC(=O)Cc1ccc2ccccc2c1 (centres unmarked) [Compound 155] |
| 4 | 46 |  | Cc1ccn(Cc2ccccc2Oc2ccccc2)c(=O)c1NC(=O)C(Cc1ccc(C(C)(C)C(=O)O)cc1)NC(=O)Cc1ccc2ccccc2c1 (centres unmarked) [Compound 156] |
| 1.7 | 75 |  | COc1ccc(Cn2ccc(C)c(NC(=O)C(Cc3ccc(C(C)(C)C(=O)O)cc3)NC(=O)Cc3ccc(-c4ccccc4)cc3)c2=O)cc1 (centres unmarked) [Compound 158] |
| 0.52 | 116 |  | COc1ccc(Cn2ccc(C)c(NC(=O)C(Cc3ccc(C(C)(C)C(=O)O)cc3)NC(=O)Cc3cccc4ccccc34)c2=O)cc1 (centres unmarked) [Compound 169] |
| 0.66 | 96 |  | COc1ccc(Cn2ccc(C)c(NC(=O)C(Cc3ccc(C(C)(C)C(=O)O)cc3)NC(=O)Cc3ccc(Oc4ccccc4)cc3)c2=O)cc1 (centres unmarked) [Compound 172] |
| 1 | 67 |  | COc1ccc(Cn2ccc(C)c(NC(=O)C(Cc3ccc(C(C)(C)C(=O)O)cc3)NC(=O)COc3cccc4ccccc34)c2=O)cc1 (centres unmarked) [Compound 174] |
| 2.1 | 64 |  | Cc1ccn(CCCc2ccccc2)c(=O)c1NC(=O)C(Cc1ccc(C(C)(C)C(=O)O)cc1)NC(=O)Cc1cccc2ccccc12 (centres unmarked) [Compound 182] |
| 0.18 | 52 |  | COc1ccc(Cn2ccc(C)c(NC(=O)C(Cc3ccc(C(C)(C)C(=O)O)cc3)NC(=O)Cc3c(OC)ccc4ccccc34)c2=O)cc1 (centres unmarked) [Compound 187] |
| 1.2 | 169 |  | CCCCCn1ccc(C)c(NC(=O)C(Cc2ccc(C(C)(C)C(=O)O)cc2)NC(=O)Cc2ccc3ccccc3c2)c1=O (centres unmarked) [Compound 192] |
| 1.1 | 63 |  | Cc1ccn(CC2CCCCC2)c(=O)c1NC(=O)C(Cc1ccc(C(C)(C)C(=O)O)cc1)NC(=O)Cc1ccc2ccccc2c1 (centres unmarked) [Compound 195] |
| 2.2 | 87 |  | Cc1ccn(CCc2ccccc2)c(=O)c1NC(=O)C(Cc1ccc(C(C)(C)C(=O)O)cc1)NC(=O)Cc1ccc2ccccc2c1 (centres unmarked) [Compound 200] |
| 2 | 166 |  | Cc1ccn(CC2(c3ccccc3)CC2)c(=O)c1NC(=O)C(Cc1ccc(C(C)(C)C(=O)O)cc1)NC(=O)Cc1cccc2ccccc12 (centres unmarked) [Compound 213] |
| 1.2 | 117 |  | Cc1ccn(CC2(c3ccccc3)CC2)c(=O)c1NC(=O)C(Cc1ccc(C(C)(C)C(=O)O)cc1)NC(=O)Cc1ccc2ccccc2c1 (centres unmarked) [Compound 214] |
| 5.9 | 36 |  | Cc1ccn(CC2(c3ccccc3)CC2)c(=O)c1NC(=O)C(Cc1ccc(C(C)(C)C(=O)O)cc1)NC(=O)C(C)(C)c1ccc2ccccc2c1 (centres unmarked) [Compound 215] |
| 190 |  | 193 | COc1ccc(Cn2ccc(C)c(NC(=O)C(Cc3ccc(C(C)(C)C(=O)O)cc3)NC(=O)Cc3cccc4ccccc34)c2=O)cc1 (centres unmarked) [Compound 216] |

Second part, the compound before the results:

| SMILES | Kd [1] [µM] | IC50 ([2]; Homo sapiens, CD4 positive) [µM] | IC50 [2] [µM] |
| --- | --- | --- | --- |
| CCC(C(=O)N[C@@H](Cc1ccc(C(C)(C)C(=O)O)cc1)C(=O)Nc1c(C)ccn(Cc2ccc(OC)cc2)c1=O)c1cccc2ccccc12 (some centres unmarked) [Compound 126] | 0.68 | 39 |  |
| COc1ccc(Cn2ccc(C)c(NC(=O)[C@H](Cc3ccc(C(C)(C)C(=O)O)cc3)NC(=O)[C@@H](C)c3ccc(CC(C)C)cc3)c2=O)cc1 [Compound 127] | 1.4 | 52 |  |
| COc1ccc(Cn2ccc(C)c(NC(=O)[C@H](Cc3ccc(C(C)(C)C(=O)O)cc3)NC(=O)Cc3ccc(NCC(C)(C)C)cc3)c2=O)cc1 [Compound 132] | 0.25 | 141 |  |
| COc1ccc(Cn2ccc(C)c(NC(=O)[C@H](Cc3ccc(C(C)(C)C(=O)O)cc3)NC(=O)N(C)c3cccc4ccccc34)c2=O)cc1 [Compound 133] | 0.78 | 112 |  |
| CCOc1ccc(Cn2ccc(C)c(NC(=O)C(Cc3ccc(C(C)(C)C(=O)O)cc3)NC(=O)C(C)(C)c3cccc4ccccc34)c2=O)cc1 (centres unmarked) [Compound 141] | 8.8 | 49 |  |
| CCCCCCn1ccc(C)c(NC(=O)C(Cc2ccc(C(C)(C)C(=O)O)cc2)NC(=O)Cc2c(F)c(F)c(F)c(F)c2F)c1=O (centres unmarked) [Compound 142] | 1.3 | 94 |  |
| COc1ccc(Cn2ccc(C)c(N(C)C(=O)C(Cc3ccc(C(C)(C)C(=O)O)cc3)NC(=O)Cc3ccc4ccccc4c3)c2=O)cc1 (centres unmarked) [Compound 151] | > 200 | 67 |  |
| COc1ccc(Cn2ccc(C)c(NC(=O)C(Cc3ccc(C(C)(C)C(=O)O)cc3)NC(=O)C(C)(C)c3ccc(-c4ccccc4)cc3)c2=O)cc1 (centres unmarked) [Compound 159] | 1.4 | 25 |  |
| COc1ccc(Cn2ccc(C)c(NC(=O)C(Cc3ccc(C(C)(C)C(=O)O)cc3)NC(=O)Cc3ccc(C(C)(C)C)cc3)c2=O)cc1 (centres unmarked) [Compound 173] | 0.31 | 93 |  |
| COc1ccc(Cn2ccc(C)c(NC(=O)C(Cc3ccc(C(C)(C)C(=O)O)cc3)NC(=O)COc3cccc4c(N(C)C)cccc34)c2=O)cc1 (centres unmarked) [Compound 175] | 0.78 | 108 |  |
| COc1ccc(C(C)n2ccc(C)c(NC(=O)C(Cc3ccc(C(C)(C)C(=O)O)cc3)NC(=O)Cc3cccc4ccccc34)c2=O)cc1 (centres unmarked) [Compound 178] | 0.68 | 65 |  |
| COc1ccc(Cn2ccc(C)c(NC(=O)C(Cc3ccc(C(C)(C)C(=O)O)cc3)NC(=O)C(C)(C)c3ccccc3)c2=O)cc1 (centres unmarked) [Compound 180] | 2.5 | 82 |  |
| COc1ccc(C(C)n2ccc(C)c(NC(=O)C(Cc3ccc(C(C)(C)C(=O)O)cc3)NC(=O)C(C)(C)c3ccc4ccccc4c3)c2=O)cc1 (centres unmarked) [Compound 184] | 1.3 | 53 |  |
| COc1ccc(Cn2ccc(C)c(NC(=O)C(Cc3ccc(C(C)(C)C(=O)O)cc3)NC(=O)C(C)(C)c3ccc(C(C)(C)C)cc3)c2=O)cc1 (centres unmarked) [Compound 186] | 0.78 | 41 |  |
| Cc1ccn(CC2CCCCC2)c(=O)c1NC(=O)C(Cc1ccc(C(C)(C)C(=O)O)cc1)NC(=O)Cc1cccc2ccccc12 (centres unmarked) [Compound 194] | 2.3 | 84 |  |
| Cc1ccn(CC2CCCCC2)c(=O)c1NC(=O)C(Cc1ccc(C(C)(C)C(=O)O)cc1)NC(=O)C(C)(C)c1ccc2ccccc2c1 (centres unmarked) [Compound 196] | 5.4 | 29 |  |
| CCCCCCn1ccc(C)c(NC(=O)C(Cc2ccc(C(C)(C)C(=O)O)cc2)NC(=O)COc2ccccc2)c1=O (centres unmarked) [Compound 205] | 1.9 | 136 |  |
| CCCCCCn1ccc(C)c(NC(=O)C(Cc2ccc(C(C)(C)C(=O)O)cc2)NC(=O)Cc2ccc(OC)cc2)c1=O (centres unmarked) [Compound 208] | 0.8 | 279 |  |
| CCCCCCn1ccc(C)c(NC(=O)C(Cc2ccc(C(C)(C)C(=O)O)cc2)NC(=O)Cc2ccc(C(F)(F)F)cc2)c1=O (centres unmarked) [Compound 209] | 0.19 | 92 |  |
| COc1ccc(Cn2ccc(C)c(NC(=O)C(Cc3ccc(C(C)(C)C(=O)O)cc3)NC(=O)C(C)(C)c3ccc(C(F)(F)F)cc3)c2=O)cc1 (centres unmarked) [Compound 217] | 1.3 | 70 |  |
